Assay results from the supplement of paper PMC11061612.

What was measured:
Experiment in all cases: Bliss excess, mean over the matrix (fraction); higher = more synergy
RD (Rhabdomyosarcoma) = tested on: RD (Rhabdomyosarcoma)
Outline: (§1)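 After 24 hours at 37°C and 5% CO2 in 1536-well plates, cells in DMEM/F12 or RPMI plus 10% FBS received two-drug dose matrices for 72 hours. Viability came from CellTiter-Glo 2.0 luminescence and was scaled as inhibition, anchored at 0 by vehicle wells and at 1 by blank wells. Combination Emax is taken as the second-highest inhibition in the matrix, and Bliss excess as the observed combination effect less EA + EB − EA·EB, with EA and EB the single-agent effects.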

[1] = tested on: MOLM-13 (Acute Myeloid Leukemia)
Outline: as §1

[2] = tested on: DAN-G (Pancreatic Carcinoma)
Outline: as §1

[3] = tested on: KY821 (Acute Myeloid Leukemia)
Outline: as §1

[4] = tested on: ST486 (Burkitt's Lymphoma)
Outline: as §1

[5] = tested on: NCI-H661 (Non-Small Cell Lung Carcinoma)
Outline: as §1

[6] = tested on: MOG-G-CCM (Low Grade Glioma)
Outline: as §1

[7] = tested on: NCI-H520 (Squamous Cell Lung Carcinoma)
Outline: as §1

[8] = tested on: NCI-H929 (Plasma Cell Myeloma)
Outline: as §1

[9] = tested on: KMS-12-BM (Plasma Cell Myeloma)
Outline: as §1

[10] = tested on: HCC1419 (Breast Carcinoma)
Outline: as §1

[11] = tested on: DMS-114 (Small Cell Lung Carcinoma)
Outline: as §1

[12] = tested on: NCCIT (Other Solid Carcinomas)
Outline: as §1

[13] = tested on: RPMI-8226 (Plasma Cell Myeloma)
Outline: as §1

[14] = tested on: KP-3 (Pancreatic Carcinoma)
Outline: as §1

SJSA-1 (Osteosarcoma) = tested on: SJSA-1 (Osteosarcoma)
Outline: as §1

[15] = tested on: 8505C (Thyroid Gland Carcinoma)
Outline: as §1

[16] = tested on: SNU-398 (Hepatocellular Carcinoma)
Outline: as §1

[17] = tested on: HCC1187 (Breast Carcinoma)
Outline: as §1

[18] = tested on: NCI-H3122 (Lung Adenocarcinoma)
Outline: as §1

Structure (SMILES) | Bliss excess (RD (Rhabdomyosarcoma)) | Bliss excess [1] | Bliss excess [2] | Bliss excess [3] | Bliss excess [4] | Bliss excess [5] | Bliss excess [6] | Bliss excess [7] | Bliss excess [8] | Bliss excess [9] | Bliss excess [10] | Bliss excess [11] | Bliss excess [12] | Bliss excess [13] | Bliss excess [14] | Bliss excess (SJSA-1 (Osteosarcoma)) | Bliss excess [15] | Bliss excess [16] | Bliss excess [17] | Bliss excess [18]
COc1cccc(OCCCN)c1-c1cc(Nc2cnc(C#N)cn2)n[nH]1 [Prexasertib] + Cc1cc2ncnn2cc1Nc1ncc2c(n1)n(C1CCOCC1)c(=O)n2C [AZD7648] (first compound max 1 µM, 7x7, partner max 10 µM) | -0.0283 | -0.0094 | -0.0095 | 0.0276 | -0.0289 | -0.0543 | -0.0037 | 0.0278 | -0.0864 | 0.0085 | -0.0211 | 0.0127 | -0.0331 | -0.0936 | 0.0141 | -0.0326 | 0.0131 | 0.0353 | 0.0307 | 0.0055
Cc1c2c(nn1C)CSCc1cc(n(C)n1)CSc1cc(c3ccccc3c1)OCCCc1c(C(=O)O)n(C)c3c-2c(Cl)ccc13 [AZD5991] + C[C@@H]1COCCN1C2=NC(=NC(=C2)C3(CC3)[S@](=N)(=O)C)C4=C5C=CNC5=NC=C4 [AZD6738] (first compound max 1 µM, 7x7, partner max 10 µM) | 0.0482 | 0.0037 | 0.0265 | -0.0356 | 0.0248 | 0.0528 | -0.0252 | -0.0091 | -0.0296 | -0.009 | -0.0091 | 0.0436 | 0.0573 | 0.008 | 0.0405 | 0.0711 | 0.0148 | 0.0504 | 0.0756 | 0.056
COc1nnc2ccc(N3CCC(c4ccc(OCCN5CCN(C)C(=O)[C@H]5C)cc4)CC3)nn12 [AZD5153] + CCN(CCO)CCCOc1ccc2c(Nc3cc(CC(=O)Nc4cccc(F)c4)[nH]n3)ncnc2c1 [AZD2811] (first compound max 1 µM, 7x7, partner max 1 µM) | 0.0001 | 0.0176 | -0.0611 | 0.0574 | -0.0647 | -0.0318 | -0.052 | 0.0242 | -0.0026 | 0.0641 | -0.0414 | -0.0127 | -0.0288 | -0.0116 | -0.0359 | -0.0335 | 0.03 | -0.0495 | -0.0934 | -0.0217
COc1cc2c(cc1OCCCCCOc1cc3c(cc1OC)C(=O)N1C=C(C)C[C@H]1C=N3)N=C[C@@H]1CC(C)=CN1C2=O [SG3199] + O=C(c1cc(Cc2n[nH]c(=O)c3ccccc23)ccc1F)N1CCN(C(=O)C2CC2)CC1 [Olaparib] (first compound max 0.001 µM, 7x7, partner max 10 µM) | -0.0453 | 0.0049 | -0.0266 | -0.0244 | -0.0258 | -0.0432 | -0.0387 | -0.0503 | -0.0333 | 0.0202 | -0.119 | -0.0398 | -0.0225 | -0.0213 | -0.0424 | -0.0252 | -0.0031 | -0.0322 | -0.006 | -0.0385
CC1(C)CCC(CN2CCN(c3ccc(C(=O)NS(=O)(=O)c4ccc(NCC5CCOCC5)c([N+](=O)[O-])c4)c(Oc4cnc5[nH]ccc5c4)c3)CC2)=C(c2ccc(Cl)cc2)C1 [Venetoclax] + Cc1cc2ncnn2cc1Nc1ncc2c(n1)n(C1CCOCC1)c(=O)n2C [AZD7648] (first compound max 1 µM, 7x7, partner max 10 µM) | -0.0373 | 0.0014 | -0.0106 | 0.056 | -0.0376 | -0.0345 | -0.0528 | 0.0114 | 0.0418 | 0.0378 | -0.0116 | -0.0205 | -0.0326 | 0.0285 | -0.0358 | -0.0404 | -0.0088 | -0.0427 | -0.0061 | -0.0201
Cc1c2c(nn1C)CSCc1cc(n(C)n1)CSc1cc(c3ccccc3c1)OCCCc1c(C(=O)O)n(C)c3c-2c(Cl)ccc13 [AZD5991] + C=CCn1c(=O)c2cnc(Nc3ccc(N4CCN(C)CC4)cc3)nc2n1-c1cccc(C(C)(C)O)n1 [AZD1775] (first compound max 1 µM, partner max 1 µM) | 0.04 | -0.0021 | 0.0424 | -0.0329 | -0.0067 | 0.0429 | -0.0287 | 0.0221 | 0.0023 | -0.0082 | -0.106 | -0.0295 | -0.0113 | -0.0006 | 0.0154 | 0.0115 | 0.0256 | 0.0149 | -0.0342 | -0.058
CC1(C)CCC(CN2CCN(c3ccc(C(=O)NS(=O)(=O)c4ccc(NCC5CCOCC5)c([N+](=O)[O-])c4)c(Oc4cnc5[nH]ccc5c4)c3)CC2)=C(c2ccc(Cl)cc2)C1 [Venetoclax] + C1CN(CCC1(C(=O)N[C@@H](CCO)C2=CC=C(C=C2)Cl)N)C3=NC=NC4=C3C=CN4 [Capivasertib] (first compound max 1 µM, 7x7, partner max 3 µM) | -0.0226 | 0.0074 | -0.0689 | 0.0303 | -0.0348 | -0.0218 | -0.0568 | -0.0275 | -0.0099 | 0.0559 | -0.057 | -0.0467 | -0.0285 | -0.0102 | -0.0257 | -0.0509 | -0.027 | -0.0081 | -0.0227 | -0.0592
